Activity calls are given as the source filed them. The rule behind the calls is not given here. Square brackets hold non-standard residues; d marks the D form. Peptide text beside a SMILES is read from it. * marks the point of attachment. Benzoyl(4-tBu) = CC(C)(C)c1ccc(C(=O)*)cc1; Lys(Et2) = CCN(CC)CCCC[C@H](N)C(=O)O; Cbz = O=C(OCc1ccccc1)*
What was measured:
Schistosoma mansoni [1] = assay: In vitro activity on S. mansoni schistosomula at 50 uM; assay type: functional, organism-based; design: test concentration 50 uM, temperature 37 degree C, time incubation 72 h; details: Puerto Rican
Schistosoma mansoni [2] = assay: In vitro activity on S. mansoni schistosomula at 10 uM; assay type: functional, organism-based; design: test concentration 10 uM, temperature 37 degree C, time incubation 72 h; details: Puerto Rican
Schistosoma mansoni [3] = assay type: functional, Puerto Rican; details: temperature 37 degree C; tested at 10 uM; Worm movement inhibition (compared to DMSO control)_lower value 0 %; Worm movement inhibition (compared to DMSO control)_upper value 100 %
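Throughout, for Worm movement inhibition: in vitro assay using adult worms.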

Compound	In vitro activity (Schistosoma mansoni [1])	In vitro activity (Schistosoma mansoni [2])	Worm movement inhibition (Schistosoma mansoni [3]) [%]
CC(=O)N1CCc2c(c(Nc3ccc(-c4cnn(C)c4)cc3F)nn2[C@H]2CCOC2)C1	inactive	inactive	
CCN1/C(=C/C(C)=O)Sc2ccc(O)cc21	inactive	inactive	
CCN1CCN(Cc2ccc(NC(=O)Nc3ccc(Oc4cc(NC)ncn4)cc3)cc2C(F)(F)F)CC1	Active	inactive	
CCN(CC)Cc1ccc2cc(COC(=O)Nc3ccc(C(=O)NO)cc3)ccc2c1	inactive	inactive	
NC(=O)c1ccc(-c2nc(-c3ccccn3)c(-c3ccc4c(c3)OCO4)[nH]2)cc1	Active	inactive	
Nc1nc(N)c2nc(-c3cccc(O)c3)c(-c3cccc(O)c3)nc2n1	inactive	inactive	
N[C@H]1C[C@@H]1c1ccc(-c2cccc(O)c2)cc1	Active	inactive	
O=C1Nc2cc(Br)ccc2/C1=C1/Nc2ccccc2/C1=N\O [6BIO]	Active	Active	95.74
COc1ncc2cc(C(=O)Nc3cc(C(=O)NCc4cccc(Cl)c4)ccc3Cl)c(=O)[nH]c2n1	inactive	inactive	
Nc1ccc(-c2ccc(F)cc2)cc1NC(=O)C1CCOCC1	inactive	inactive	
CC(C)C[C@@H](C=O)NC(=O)[C@H](CC(C)C)NC(=O)[C@H](CC(C)C)NC(=O)OCc1ccccc1 (Cbz-Leu-Leu-Leu-aldehyde)	Active	inactive	
O=C(O)c1ccc(CN2CCC(CN[C@@H]3C[C@H]3c3ccccc3)CC2)cc1	inactive	inactive	
C[S+]([O-])c1ccc(-c2nc(-c3ccc(F)cc3)c(-c3ccncc3)[nH]2)cc1 (stereo unspecified)	inactive	inactive	
Nc1nc(Nc2ccc(S(N)(=O)=O)cc2)nn1C(=O)c1c(F)cccc1F	inactive	inactive	
CCCCc1nc2cc(/C=C/C(=O)NO)ccc2n1CCN(CC)CC	inactive	inactive	
O=C(/C=C/c1ccc2c(ccn2S(=O)(=O)c2ccccc2)c1)NO	Active	inactive	
COc1ccc2c(c1)[nH]c1c(C)nccc12	inactive	inactive	
COc1ccc(-c2c(-c3ccc(O)cc3O)n[nH]c2C)cc1	inactive	inactive	
Oc1ccc(Nc2nc(-c3ccc(Cl)cc3)cs2)cc1	Active	inactive	
CC(C)c1cccc(=O)c(O)c1	inactive	inactive	
CCN(CC)CCCC[C@H](NC(=O)[C@H](CC(C)C)NC(=O)[C@H](C)NC(=O)[C@H](Cc1ccccc1)NC(=O)c1ccc(C(C)(C)C)cc1)C(=O)N[C@@H](CO)C(=O)OC ({Benzoyl(4-tBu)}-FAL[Lys(Et2)]S-OMe)	inactive	inactive	
CC(O)(CC(=O)O)CC(=O)O	inactive	inactive	

Compound	In vitro activity (Schistosoma mansoni [1])	In vitro activity (Schistosoma mansoni [2])	Worm movement inhibition (Schistosoma mansoni [3]) [%]
COc1cc(Nc2ncc(F)c(Nc3ccc4c(n3)NC(=O)C(C)(C)O4)n2)cc(OC)c1OC	inactive	inactive	
O=C(O)C[C@@H]1C(=O)O[C@H]2[C@@H]3OC(=O)c4cc(O)c(O)c(O)c4-c4c(cc(O)c(O)c4O)C(=O)OC[C@H]2O[C@@H](OC(=O)c2cc(O)c(O)c(O)c2)[C@@H]3OC(=O)c2cc(O)c(O)c3c2[C@H]1[C@H](O)C(=O)O3	inactive	inactive	
Cc1nc2c(OCc3ccccc3)cccn2c1CC#N	inactive	inactive	
O=C(NO)c1cnc(NC2(c3ccccc3)CC2)nc1	inactive	inactive	
O=C(CCCCCCC(=O)Nc1cccnc1)NO	inactive	inactive	
CSc1cccc(Nc2ncc3cc(-c4c(Cl)cccc4Cl)c(=O)n(C)c3n2)c1	inactive	inactive	
Cc1nccc(-c2cn(Cc3ccccc3)c3cnccc23)n1	Active	inactive	
C[C@]12CC[C@H](O)C[C@H]1CC[C@@H]1[C@@H]2CC[C@]2(C)[C@@H](C3=CC(=O)OC3)CC[C@]12O	Active	inactive	
CC(C)(C)c1cnc(CSc2cnc(NC(=O)C3CCNCC3)s2)o1	inactive	inactive	
C#Cc1cccc(Nc2ncnc3cc(OC)c(OCCCCCCC(=O)NO)cc23)c1	inactive	inactive	
O=C1NC(=O)/C(=C/c2ccc3nccnc3c2)S1	Active	inactive	
CNC(=O)c1c(F)cccc1Nc1nc(Nc2cc3c(cc2OC)CCN3C(=O)CN(C)C)nc2[nH]ccc12	Active	inactive	
CN(C)CCCn1cc(C2=C(c3c[nH]c4ccccc34)C(=O)NC2=O)c2ccccc21	Active	inactive	
c1ccc(-c2n[nH]cc2-c2ccnc3ccccc23)nc1	inactive	inactive	
O=C(CCCCCN1C(=O)c2cccc3cccc(c23)C1=O)NO	inactive	inactive	
Cc1cc(/N=N/c2cc(S(=O)(=O)O)c(C)cc2C)c(N)cc1O	inactive	inactive	
Cc1cccc(-c2[nH]c(C(C)(C)C)nc2-c2ccc3c(c2)OCO3)n1	inactive	inactive	
Cc1cc(Nc2cc(N3CCN(C)CC3)nc(Sc3ccc(NC(=O)C4CC4)cc3)n2)n[nH]1	Active	inactive	
Cc1cccc(-c2nn3c(c2-c2ccnc4ccc(C(N)=O)cc24)CCC3)n1	inactive	inactive	
O=C(NC1CCNCC1)c1n[nH]cc1NC(=O)c1c(Cl)cccc1Cl	inactive	inactive	
O=C(/C=C/c1ccc(CN(CCO)CCc2c[nH]c3ccccc23)cc1)NO	Active	inactive	
CC(C)NCCCn1c(Sc2cc3c(cc2I)OCO3)nc2c(N)ncnc21	Active	inactive	

Compound	In vitro activity (Schistosoma mansoni [1])	In vitro activity (Schistosoma mansoni [2])	Worm movement inhibition (Schistosoma mansoni [3]) [%]
Nc1nc2c(ncn2[C@@H]2O[C@H](COP(=O)(O)OP(=O)(O)O)[C@@H](O)[C@H]2O)c(=O)[nH]1	inactive	inactive	
CN(C)Cc1c(C(=O)NCCOc2ccc(C(=O)NO)cc2)oc2ccccc12	Active	inactive	
COc1ncc(-c2ccc3nc(N)n(-c4ccccc4C(F)(F)F)c(=O)c3c2)cc1S(=O)(=O)Nc1ccc(F)cc1F	Active	inactive	
CN[C@@H]1C[C@H]2O[C@@](C)([C@@H]1OC)n1c3ccccc3c3c4c(c5c6ccccc6n2c5c31)C(=O)NC4	Active	Active	
COc1ccc(F)c(F)c1C(=O)c1cnc(NC2CCN(S(C)(=O)=O)CC2)nc1N	inactive	inactive	
CNC(=O)c1ccc(Nc2nc(OC3CCCC3)c3c(-c4ccc5nc(C)oc5c4)c[nH]c3n2)c(OC)c1	inactive	inactive	
O=C1NCCCc2c1oc1ccc(O)cc21	inactive	inactive	
Nc1ncnc2c1ncn2[C@@H]1O[C@H](COP(=O)(O)OP(=O)(O)O)[C@@H](O)[C@H]1O	inactive	inactive	
CCOC(=O)NCCCC(=O)NCCc1ccccc1	inactive	inactive	
C[C@H]1CCCC(=O)CCCCCc2cc(O)cc(O)c2C(=O)O1	inactive	inactive	
CC1(C)Cc2c(sc(NC(=S)NC(=O)c3ccccc3)c2C(=O)O)CO1	inactive	inactive	
COc1ccc(-c2nc(N)ncc2-c2csc(C)n2)c(O)c1	inactive	inactive	
O=C(CCCCCCNC(=O)c1cnc(N(c2ccccc2)c2ccccc2)nc1)NO	inactive	inactive	
CCc1cc(-c2[nH]nc(C)c2-c2ccc3c(c2)OCCO3)c(O)cc1O	Active	inactive	
O=C(c1ccc(/C=C/c2n[nH]c3ccccc23)cc1)N1CCNCC1	Active	inactive	
CC[C@@]1(O)C(=O)OCc2c1cc1n(c2=O)Cc2cc3ccccc3nc2-1	Active	inactive	
CN1CCC(NC(=O)c2cc(-c3c(O)cc(O)cc3Oc3ccc([N+](=O)[O-])cc3)on2)CC1	inactive	inactive	
O=C(O[C@H]1[C@@H]2C=CO[C@@H](O[C@@H]3O[C@H](CO)[C@@H](O)[C@H](O)[C@H]3O)[C@@H]2[C@@]2(CO)O[C@@H]12)c1ccc(O)cc1	inactive	inactive	
Fc1ccc(Cl)cc1-c1nc(Nc2ccncc2)c2nccnc2n1	inactive	inactive	
CC(=O)Nc1ccc(C(=O)Nc2cc(-c3cccs3)ccc2N)cc1	inactive	inactive	
CN1CCN(C(=O)CN[C@H]2C[C@@H]2c2ccc(OCc3ccccc3)cc2)CC1	Active	inactive	

— ChEMBL document CHEMBL5096127, “Using ChEMBL to complement schistosome drug discovery” (2023)
